Test results from patent US20230099441A1, “HETEROCYCLIC COMPOUND, APPLICATION THEREOF, AND COMPOSITION CONTAINING SAME” (GenEros Biopharma Ltd., priority 2019, published 2023).

Experiments:
[1] = test system: mouse collagen-induced arthritis model; test: Therapeutic efficacy in a mouse collagen-induced arthritis model (clinical score); type: in vivo; conditions: for clinical score of arthritis, Mean (the larger the value, the more severe the disease): mean of group, total score 0-12, oral, Methotrexate 0.25 mg/kg once a week, Tofacitinib 5 mg/kg once a day, X8 1 mg/kg once a day
Excerpt: Example of Effect 2: Evaluation of the Therapeutic Efficacy of X8 Compound in a Mouse Collagen-Induced Arthritis Model
Sixty male DBA/1J mice (9-10 weeks old, H-2q haplotype) were acclimatized in a standard animal room for one week and then randomly divided into 5 groups. Except for the healthy control group, the rest were inoculated with collagen antigen injection, and then received oral treatment with different compounds. The brief procedure was to mix bovine type II collagen (purchased from Chondrex, 20021) with an equal volume of Freund's complete adjuvant (purchased from Sigma, F5881), the concentration was 4 mg/ml, and it was treated with a homogenizer at a speed of 20,000 revolutions/min for 5-10 minutes. A needle was inserted between the left side of the dorsal caudal artery and the lateral vein of the mouse, and 50 microliters of modeling agent was injected subcutaneously. 21 days after the first injection, another injection was injected between the right side of the dorsal tail artery and the lateral vein of the mouse. After the first injection, oral administration was started. The drug was formulated with […] PEG300, and it was prepared for immediate use. […] The total score was between 0-12 points, and the swelling of the foot after vaccination was not calculated.

[2] = test system: STAT5 Y694 phosphorylation; test: Protein electrophoresis and blotting of STAT5 Y694 phosphorylation in Jurkat cells stimulated with human interferon beta; type: cell-based; conditions: for Inhibiting Ratio (0% for vehicle control): 1 hour pretreatment, 20 ng/ml human interferon beta 30 minutes, pSTAT5/GAPDH
Procedure, shortened: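 Serum-free Jurkat cells pretreated with compound 1 h, then stimulated with 20 ng/ml human interferon beta for 30 min at 37° C. pSTAT5 measured by western blot with chemiluminescence, normalized to GAPDH and expressed as percent of DMSO control.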

[3] = test system: STAT5 Y694 phosphorylation; test: HTRF experiment: STAT5 Y694 phosphorylation in Hela cells stimulated with human interferon beta; type: cell-based; conditions: 2 hours pretreatment, 10 nM human interferon beta 30 minutes

SMILES: O=C(Cc1ccc(C(F)(F)F)cc1)N1CCC(n2c(=O)[nH]c3ccccc32)CC1 [Example X8, 1-(1-(2-(4-(trifluoromethyl)phenyl)acetyl)piperidin-4-yl)-1H-benzo[d]imidazole-2(3H)-one]
- therapeutic effect on severity of the disease (in words) ([1]; X8 1 mg/kg once a day oral, compared with tofacitinib 5 mg/kg once a day): comparable effects to the tofacitinib treatment group, which significantly reduced the severity of the disease
- clinical score of arthritis, Mean (the larger the value, the more severe the disease) ([1]; day 0): 0.00
- clinical score of arthritis, Mean (the larger the value, the more severe the disease) ([1]; day 21): 0.00
- clinical score of arthritis, Mean (the larger the value, the more severe the disease) ([1]; day 25): 0.00
- clinical score of arthritis, Mean (the larger the value, the more severe the disease) ([1]; day 28): 0.98
- clinical score of arthritis, Mean (the larger the value, the more severe the disease) ([1]; day 31): 1.66
- clinical score of arthritis, Mean (the larger the value, the more severe the disease) ([1]; day 33): 2.39
- clinical score of arthritis, Mean (the larger the value, the more severe the disease) ([1]; day 35): 2.64
- clinical score of arthritis, Mean (the larger the value, the more severe the disease) ([1]; day 38): 2.87
- clinical score of arthritis, Mean (the larger the value, the more severe the disease) ([1]; day 40): 2.87
- clinical score of arthritis, Mean (the larger the value, the more severe the disease) ([1]; day 42): 3.17
- clinical score of arthritis, Mean (the larger the value, the more severe the disease) ([1]; day 45): 3.39
- Inhibiting Ratio (0% for vehicle control) ([2]; 1 μM): 6.9%
- Inhibiting Ratio (0% for vehicle control) ([2]; 10 μM): 31.4%
- Inhibiting Ratio (0% for vehicle control) ([2]; 100 μM): 95.6%
- Example of Effect 1: Inhibiting Ability (Protein Electrophoresis and Blotting) ([2]; observed pSTAT5 bands at 10 μM and 100 μM): +
- Example of Effect 3: Inhibiting Ratio@10 μM (HTRF Experiment) [3]: 22.60%
